Results published in patent US20260008739A1, “CRYSTAL AND FORMULATION OF REDUCED COENZYME Q10” (KANEKA CORPORATION, priority 2023, published 2026).

Experiment: Oxidation stability of QH crystals on storage at 40° C. and 75% RH (HPLC of reduced and oxidized coenzyme Q10)
Assay type: physicochemical
Settings: for Relative QH ratio: QH ratio before storage = 100; for Oxidizing rate: crystal stored at 40° C. and 75% RH for approximately 1 month, decrease in relative QH ratio divided by days of storage
Method: The QH crystals prepared in Examples 1 to 3 and Comparative Examples 1 and 2 above were stored at 40° C. and 75% RH in a thermostatic chamber for approximately 1 month. Before and after the storage, the reduced coenzyme Q10 content and the oxidized coenzyme Q10 content of the crystal were measured by HPLC (high performance liquid chromatography). On the basis of the measurement results, the below-described QH ratio, relative QH ratio after storage, and oxidizing rate were calculated.
• Column: AS12S05-1546WT (manufactured by YMC Co., Ltd.) 150 mm (in length) and 4.6 mm (in inner diameter) • Mobile phase: C2H3N: CH3OH=1:9 (v:v) • Detection wavelength: 290 nm • Flow rate: 1 ml/min
The “QH ratio” means the ratio of the amount of the reduced coenzyme Q10 to the total amount of the coenzyme Q10 present in the crystal, and is calculated in accordance with the following formula.
The “relative QH ratio after storage” is a value obtained by relativizing the QH ratio after storage on the basis of each of the QH ratios measured before the start of storage and after storage, assuming that the QH ratio before storage is 100. The relative QH ratio after storage is calculated in accordance with the following formula.
The “oxidizing rate” is a value obtained by dividing a change (amount of decrease) in the relative QH ratio in the period of storage by the number of days of storage, and is calculated in accordance with the following formula.

[1] = crystal stored at 40° C. and 75% RH for 28 days

Row | Compound | Relative QH ratio (crystal stored at 40° C. and 75% RH for 29 days) | Oxidizing rate [%/day] | Relative QH ratio [1]
1 | COc1c(O)c(C)c(C/C=C(\C)CC/C=C(\C)CC/C=C(\C)CC/C=C(\C)CC/C=C(\C)CC/C=C(\C)CC/C=C(\C)CC/C=C(\C)CC/C=C(\C)CCC=C(C)C)c(O)c1OC [Comparative Example 1, reduced coenzyme Q10] | 86.1 (when stored % | 0.48 | –
2 | COc1c(O)c(C)c(C/C=C(\C)CC/C=C(\C)CC/C=C(\C)CC/C=C(\C)CC/C=C(\C)CC/C=C(\C)CC/C=C(\C)CC/C=C(\C)CC/C=C(\C)CCC=C(C)C)c(O)c1OC [Comparative Example 2, reduced coenzyme Q10] | – | 0.42 | 88.2 (when stored %
3 | COc1c(O)c(C)c(C/C=C(\C)CC/C=C(\C)CC/C=C(\C)CC/C=C(\C)CC/C=C(\C)CC/C=C(\C)CC/C=C(\C)CC/C=C(\C)CC/C=C(\C)CCC=C(C)C)c(O)c1OC [Example 1, reduced coenzyme Q10] | – | 0.30 | 91.6 (when stored %
4 | COc1c(O)c(C)c(C/C=C(\C)CC/C=C(\C)CC/C=C(\C)CC/C=C(\C)CC/C=C(\C)CC/C=C(\C)CC/C=C(\C)CC/C=C(\C)CC/C=C(\C)CCC=C(C)C)c(O)c1OC [Example 2, reduced coenzyme Q10] | – | 0.26 | 92.6 (when stored %
5 | COc1c(O)c(C)c(C/C=C(\C)CC/C=C(\C)CC/C=C(\C)CC/C=C(\C)CC/C=C(\C)CC/C=C(\C)CC/C=C(\C)CC/C=C(\C)CC/C=C(\C)CCC=C(C)C)c(O)c1OC [Example 3, reduced coenzyme Q10] | – | 0.23 | 93.5 (when stored %
